Experimental data taken from PubChem BioAssay AID328 (DTP/NCI, 2004).
Toxic doses and inconclusive results are not listed. Rule for the calls: active = survival T/C of 150% or more; inactive = T/C below 125% in these data.

System: BDF1 mice, P388 leukemia ip, median survival T/C
Assay: NCI In Vivo Anticancer Drug Screen. Data for tumor model P388 Leukemia (intraperitoneal) in B6D2F1 (BDF1) mice
Settings: endpoint: median survival time, higher = longer survival
Method: The antitumor activity of compounds was measured in mice bearing transplantable tumors. Survival or tumor size were measured and the results are expressed as the measurement made in the treated group (T) divided by the measurement made in the vehicle treated control group (C). The tumor model used in this assay is P388 Leukemia (intraperitoneal) in B6D2F1 (BDF1) mice

[1] = dose: 100.0 mg/kg/injection, schedule: Q01DX009 (ip), vehicle: Klucel (hydroxypropylcellulose) (HPC)
[2] = dose: 100.0 mg/kg/injection, schedule: Q04DX003 (ip), vehicle: Klucel (hydroxypropylcellulose) (HPC)
[3] = dose: 25.0 mg/kg/injection, schedule: Q01DX009 (ip), vehicle: saline with Tween-80
[4] = dose: 50.0 mg/kg/injection, schedule: Q01DX009 (ip), vehicle: saline with Tween-80
[5] = dose: 100.0 mg/kg/injection, schedule: Q01DX009 (ip), vehicle: saline with Tween-80
[6] = dose: 50.0 mg/kg/injection, schedule: Q04DX003 (ip), vehicle: saline with Tween-80
[7] = dose: 100.0 mg/kg/injection, schedule: Q04DX003 (ip), vehicle: saline with Tween-80
[8] = dose: 200.0 mg/kg/injection, schedule: Q01DX009 (ip), vehicle: saline with Tween-80
[9] = dose: 200.0 mg/kg/injection, schedule: Q04DX003 (ip), vehicle: saline with Tween-80
[10] = dose: 200.0 mg/kg/injection, schedule: Q01DX009 (ip), vehicle: Klucel (hydroxypropylcellulose) (HPC)
[11] = dose: 200.0 mg/kg/injection, schedule: Q04DX003 (ip), vehicle: Klucel (hydroxypropylcellulose) (HPC)
[12] = dose: 400.0 mg/kg/injection, schedule: Q04DX003 (ip), vehicle: Klucel (hydroxypropylcellulose) (HPC)

Measured: T/C

O=C(/C=C(\CN1CCCCC1)c1ccccc1)c1ccccc1
inactive: dose: 25.0 mg/kg/injection, schedule: Q01DX009 (ip), vehicle: Klucel (hydroxypropylcellulose) (HPC) 100 % of control | dose: 25.0 mg/kg/injection, schedule: Q04DX003 (ip), vehicle: Klucel (hydroxypropylcellulose) (HPC) 91 % of control | dose: 50.0 mg/kg/injection, schedule: Q01DX009 (ip), vehicle: Klucel (hydroxypropylcellulose) (HPC) 104 % of control | dose: 50.0 mg/kg/injection, schedule: Q04DX003 (ip), vehicle: Klucel (hydroxypropylcellulose) (HPC) 104 % of control | [1] 109 % of control | [2] 108 % of control

COc1ccc(OC)c2nc3c(=O)[nH]c(=O)[nH]c3nc12
inactive: dose: 55.0 mg/kg/injection, schedule: Q01DX010 (ip), vehicle: water 100 % of control | dose: 80.0 mg/kg/injection, schedule: Q01DX010 (ip), vehicle: water 109 % of control | dose: 120.0 mg/kg/injection, schedule: Q01DX010 (ip), vehicle: water 109 % of control | dose: 180.0 mg/kg/injection, schedule: Q01DX010 (ip), vehicle: water 118 % of control

CS(=O)(=O)c1cnc2ccccc2n1
inactive: [3] 97 % of control | [4] 99 % of control | [5] 90 % of control

CCCCCCCCCCCC[N+](C)(C)CCCCCC[N+](C)(C)CCCCCCCCCCCC
inactive: dose: 3.13 mg/kg/injection, schedule: Q01DX009 (ip), vehicle: saline 113 % of control | dose: 6.25 mg/kg/injection, schedule: Q01DX009 (ip), vehicle: saline 116 % of control | dose: 12.5 mg/kg/injection, schedule: Q01DX009 (ip), vehicle: saline 94 % of control

CCOC(=O)C1=C(O)c2c(sc(C)c2C)N(S(=O)(=O)c2ccc(C)cc2)CC1
inactive: [3] 90 % of control | [4] 113 % of control | [6] 91 % of control | [5] 104 % of control | [7] 91 % of control | [8] 109 % of control | [9] 91 % of control | dose: 400.0 mg/kg/injection, schedule: Q04DX003 (ip), vehicle: saline with Tween-80 100 % of control

OCc1ccccc1F
inactive: [5] 88 % of control | [7] 100 % of control | [8] 103 % of control | [9] 109 % of control | dose: 400.0 mg/kg/injection, schedule: Q01DX009 (ip), vehicle: saline with Tween-80 111 % of control

NCC(O)CSc1ccccc1 (stereo unspecified)
inactive: dose: 25.0 mg/kg/injection, schedule: Q01DX009 (ip), vehicle: saline 95 % of control | dose: 50.0 mg/kg/injection, schedule: Q01DX009 (ip), vehicle: saline 100 % of control | dose: 100.0 mg/kg/injection, schedule: Q01DX009 (ip), vehicle: saline 106 % of control

CCC1(c2ccccc2)NC(=O)N(C)C1=O (stereo unspecified)
inactive: [1] 100 % of control | [2] 104 % of control | [10] 100 % of control | [11] 95 % of control | [12] 95 % of control

O=C(O)CNCc1ccc(Cl)cc1
inactive: dose: 50.0 mg/kg/injection, schedule: Q04DX003 (ip), vehicle: water 103 % of control | dose: 100.0 mg/kg/injection, schedule: Q04DX003 (ip), vehicle: water 90 % of control | dose: 200.0 mg/kg/injection, schedule: Q04DX003 (ip), vehicle: water 94 % of control

O=C(O)c1ccccc1NSc1ccccc1[N+](=O)[O-]
inactive: [4] 97 % of control | [5] 109 % of control | [8] 111 % of control

CCN(CC)c1cccc(N)c1
inactive: dose: 50.0 mg/kg/injection, schedule: Q01DX009 (sc), vehicle: olive oil, sesame oil, peanut oil 104 % of control | dose: 50.0 mg/kg/injection, schedule: Q04DX003 (sc), vehicle: olive oil, sesame oil, peanut oil 100 % of control | dose: 100.0 mg/kg/injection, schedule: Q01DX009 (sc), vehicle: olive oil, sesame oil, peanut oil 87 % of control | dose: 100.0 mg/kg/injection, schedule: Q04DX003 (sc), vehicle: olive oil, sesame oil, peanut oil 104 % of control | dose: 200.0 mg/kg/injection, schedule: Q04DX003 (sc), vehicle: olive oil, sesame oil, peanut oil 100 % of control

O=S(=O)(Cc1ccccc1)C(Cl)(Cl)c1ccccc1
inactive: [6] 100 % of control | [7] 104 % of control | [9] 109 % of control

Nn1nc2ccccc2n1
inactive: dose: 100.0 mg/kg/injection, schedule: Q04DX003 (ip), vehicle: other 100 % of control | dose: 200.0 mg/kg/injection, schedule: Q04DX003 (ip), vehicle: other 100 % of control | dose: 400.0 mg/kg/injection, schedule: Q04DX003 (ip), vehicle: other 100 % of control

CSC1=NN(c2ccccc2)CN(c2ccccc2)N1C
inactive: [4] 95 % of control | [5] 88 % of control | [8] 108 % of control

O=C(Nc1cccc2ccccc12)N1c2ccccc2SC12CCCC2
inactive: [5] 91 % of control

CC[C@@]1(O)C(=O)OCc2c1cc1n(c2=O)Cc2cc3ccccc3nc2-1
active: dose: 0.8 mg/kg/injection, schedule: Q01DX009 (ip), vehicle: saline with Tween-80 170 % of control | dose: 1.5 mg/kg/injection, schedule: Q01DX009 (ip), vehicle: saline with Tween-80 195 % of control | dose: 2.5 mg/kg/injection, schedule: Q04DX003 (ip), vehicle: saline with Tween-80 161 % of control | dose: 3.0 mg/kg/injection, schedule: Q01DX009 (ip), vehicle: saline with Tween-80 183 % of control | dose: 3.75 mg/kg/injection, schedule: Q04DX003 (ip), vehicle: saline with Tween-80 176 % of control | dose: 4.0 mg/kg/injection, schedule: Q04DX003 (ip), vehicle: saline with Tween-80 200 % of control | dose: 6.0 mg/kg/injection, schedule: Q04DX003 (ip), vehicle: saline with Tween-80 233 % of control | dose: 9.0 mg/kg/injection, schedule: Q04DX003 (ip), vehicle: saline with Tween-80 250 % of control

O=c1c2ccccc2c2nc3ccc4c(=O)c5ccccc5c5nc6ccc1c2c6c3c45
inactive: dose: 50.0 mg/kg/injection, schedule: Q01DX005 (ip), vehicle: saline with Tween-80 100 % of control | dose: 100.0 mg/kg/injection, schedule: Q01DX005 (ip), vehicle: saline with Tween-80 100 % of control

O=C(N=Nc1c(O)[nH]c2c(Cl)cc(Cl)cc12)C(=O)Nc1cccc(C(F)(F)F)c1
inactive: [5] 90 % of control | [8] 96 % of control

CC(=O)NNc1ccc([N+](=O)[O-])cc1
inactive: [1] 100 % of control | [2] 105 % of control | [10] 90 % of control | [11] 90 % of control | dose: 400.0 mg/kg/injection, schedule: Q01DX009 (ip), vehicle: Klucel (hydroxypropylcellulose) (HPC) 90 % of control | [12] 90 % of control
